This is an account of results in patent US10675352B2 (CENTROSE, LLC, priority 2014, dated 2020).

Data set [1] has as its system SU-DHL-8 cells. Put plainly: cells. The note with it: Homo sapiens, SU-DHL-8, 72 h, read-out: EC50 in picoM, SUDHL8.
Data set [2] has as its system Ramos. Put plainly: cells. The note with it: Homo sapiens, 72 h, read-out: EC50 in picoM, Ramos.
The subject of data set [3] is HL60, U937, MV411, Hut78, H929, and RAMOS. Put plainly: In vitro cytotoxic activity on six human blood cancer cell types, overall statements. The data set is classed as cell-based. Conditions: all cell lines tested except RAMOS. How it is done:
Agent loading was determined to be about 4.

In data set [4] the test system is SU-DHL-8 cells. Conditions: agents and agent-linker intermediates; value in parentheses; 3 days incubation.
The test system of data set [5] is Ramos.

SMILES strings stand for the structures. Like-named read-outs stand apart in the source and are kept apart here.

With `C[C@]12CC[C@H](OC(=O)NCCCN3CCN(CCCN)CC3)C[C@H]1CC[C@@H]1[C@@H]2CC[C@]2(C)[C@@H](C3=CC(=O)OC3)CC[C@]12O`, the EC50 in data set [1] and in data set [2] was more than 50 nM each time.

Turning to `CN(CCCN)CCCNC(=O)O[C@H]1CC[C@@]2(C)C(CCC3C2CC[C@]2(C)C(c4ccc(=O)oc4)CC[C@]32O)C1` (stereo in doubt) [CEN-372, 5-[(1S,2S,5S,7R,10R,11S,14S,15R)-5-{3-[N-Methyl(3-aminopropyl)amino]propylaminocarbonyloxy}-11-hydroxy-2,15-dimethyltetracyclo[8.7.0.02,7.011,15]heptadec-14-yl]-2-pyranone], the EC50 – broadly, the midpoint of the concentration-response curve – amounted to 4.4 nM in data set [1] and 3.6 nM in data set [2].

Take `C[C@]12CC[C@H](OC(=O)NCCCNCCCN)CC1CCC1C2CC[C@]2(C)C(c3ccc(=O)oc3)CC[C@]12O` (stereo in doubt) [CEN-373, 5-{(1S,2S,5S,7R,10R,11S,14S,15R)-5-[3-(3-Aminopropylamino)propylaminocarbonyloxy]-11-hydroxy-2,15-dimethyltetracyclo[8.7.0.02,7.011,15]heptadec-14-yl}-2-pyranone]: the EC50 stood at 5.9 nM in data set [1] and 4 nM in data set [2].

Take `CC1=C(/C=C/C(C)=C/C=C/C(C)=C/C(=O)O)C(C)(C)CCC1` [ATRA, all-trans-retinoic acid]: in data set [3], the “effect of ATRA alone on cell growth” value is reported as “slowed cell growth”.

With `C[C@]12CC[C@H](O)C[C@H]1CC[C@@H]1[C@@H]2CC[C@]2(C)[C@@H](c3ccc(=O)oc3)CC[C@]12O` [Bufalin, reference compound], the EC50 in data set [1] amounted to 16 nM; in data set [2] it was 7.3 nM.

On to `C[C@]12CCC(OC[C@@H]3OC[C@H](N)C(O)C3O)C=C1CCC1C2CC[C@]2(C)[C@@H](c3ccc(=O)oc3)CC[C@]12O` (some centres unmarked) [CEN09-106], for which the values for the EC50 in data set [1] and in data set [2] were 2.07 nM and 1.9 nM, respectively. In addition, the “% viab., SUDHL8” value in data set [4] is 0%.

With `C[C@]12CC[C@H](OC[C@@H]3OC[C@H](N)C(O)C3O)CC1CCC1C2CC[C@]2(C)[C@@H](C3=CC(=O)OC3)CC[C@]12O` (some centres unmarked) [CEN-319], the EC50 in data set [1] was 8.4 nM; in data set [2], 5.8 nM. In addition, in data set [5] (human, 3 days), the “% viab., Ramos” value is listed as 0%.

In the case of `C[C@]12CC[C@H](OC(=O)NCCCN3CCN(CCCN)CC3)CC1CCC1C2CC[C@]2(C)[C@@H](c3ccc(=O)oc3)CC[C@]12O` (some centres unmarked) [CEN-371], the figures for the EC50 in data set [1] and in data set [2] were 11 nM and 7.81 nM, respectively. For the same compound, the “% viab., SUDHL8” value in data set [4] stood at 0%. In addition, the “% viab., Ramos” value in data set [5] (agents and agent-linker intermediates, value in parentheses, 3 days incubation) is reported as 0%.

In the case of `C[C@]12CC[C@H](O)C[C@H]1CC[C@@H]1[C@@H]2CC[C@]2(C)[C@@H](C3=CC(=O)OC3)CC[C@]12O` [Digitoxigenin, reference compound], the EC50 in data set [1] and in data set [2] was more than 50 nM throughout.

Turning to `C[C@]12CC[C@H](O)C=C1CC[C@@H]1[C@@H]2CC[C@]2(C)[C@@H](c3ccc(=O)oc3)CC[C@]12O` [Scillarenin, reference compound], the EC50 was 18 nM in data set [1] and 17 nM in data set [2].
